From patent US20090004302A1, “Methods and Therapeutic Compositions Comprising Plant Extracts for the Treatment of Cancer” (priority 2004, published 2009)
Where “and” joins values, the source holds several entries; their conditions need not be identical. Equal entries are not always repeated.

Key:
[1] = tested on: LLC1 cells clone M27 lung tumour metastases; test: Lewis lung carcinoma (LLC) model of tumour metastasis; type: in vivo, C57BL/6 mice; conditions: for Mean (SD) tumours/animal / % reduction compared to control (lung tumour metastases) / Total tumour burden (per group): Day 14
Procedure: The Lewis lung carcinoma model in C57BL/6 mice was used for this study. Lewis lung carcinoma is an aggressive, highly metastatic cell line. LLC1 cells clone M27 (3×10^5 cells, screened for mycoplasma) were injected on Day 0 into the tail vein of each mouse. The mice were divided into 7 groups and received the treatments outlined below. Oral administration of plant extracts was initiated 9 days prior to injection of LLC cells (i.e. on day-9) and continued for […] along with sub-optimal doses of cisplatin (see below). Group 1: […] Group 2: […] Group 3: […] Group 4: Therapeutic combination 1 (TC1) was administered to this group. […] Group 5: Therapeutic combination 2 (TC2) was administered to this group. […] Group 6: Therapeutic combination 3 (TC3) was administered to this group. […] Group 7: Therapeutic combination 4 (TC4) was administered to this group. […] At the end of the experiment (Day 14), the animals were humanely sacrificed, the lungs resected and fixed by direct immersion for approximately 24 hrs in Bouin's fixing media. Metastatic colonies on each lung surface of each mouse were counted by direct observation under a dissecting microscope in a blinded manner by three different investigators.

[2] = tested on: B16F10 melanoma subcutaneous tumour; test: B16F10 melanoma model of tumour growth; type: in vivo, C57BL/6 mice; conditions: Day 14
Procedure: The B16F10 melanoma model in C57BL/6 mice was used for this study. B16F10 cells (1×10^6 cells, screened for mycoplasma) were injected subcuteanously on Day 0 on the right flank of each mouse. The mice were divided into 9 groups and received the treatments outlined below. Plant extracts A and B (see Example VI) were used in this study.
Oral administration of plant extracts was initiated 7 days prior to injection of the B16F10 cells (i.e. on day-7) and continued for […] with or without sub-optimal doses of doxorubicin (see below).
Group 1: The vehicle used for administration of the plant extracts was used as a negative control for the experiment. Group 2: Doxorubicin (2.5 mg/kg), a standard positive control in the B16F10 melanoma model at optimal dosage, was injected intraperitoneally on days 5, 9 and 13. Group 3: Doxorubicin (1 mg/kg), a sub-optimal dose in this model, was injected intraperitoneally on days 5, 9 and 13. Group 4: Therapeutic plant extract A (PA1) was administered by gavage (200 mg/kg) from days-7 to 14. Group 5: Therapeutic plant extract B (PB1) was administered by gavage (200 mg/kg) from days-7 to 14. Group 6: Therapeutic combination 5 (TC5) was administered to this group. TC5 comprised plant extract A and doxorubicin (1 mg/kg). Plant extract A was administered by gavage (200 mg/kg) from days-7 to 14 and doxorubicin was injected intraperitoneally on days 5, 9 and 13. Group 7: Therapeutic combination 6 (TC6) was administered to this group. TC6 comprised plant extract B and doxorubicin (1 mg/kg). Plant extract B was administered by gavage (200 mg/kg) from days-7 to 14 and doxorubicin was injected intraperitoneally on days 5, 9 and 13. Group 8: Therapeutic combination 7 (TC7) was administered to this group. TC7 comprised plant extract A, plant extract B and doxorubicin (1 mg/kg). […]
The subcutaneous tumour was measured on each animal with an electronic calliper starting on day 5 and repeated on days 8, 11 and 14 and the volume of tumour was calculated according to formula: […]. […]

Row | SMILES | Mean (SD) tumours/animal ([1]; cisplatin 2 mg/kg i.p. days 1, 4, 7, 10, 13) | % reduction compared to control (lung tumour metastases) ([1]; cisplatin 2 mg/kg i.p.) | Total tumour burden (per group) ([1]; cisplatin 2 mg/kg i.p.) | body weight of animals ([1]; cisplatin 5 mg/kg dose) | Mean (SD) tumours/animal ([1]; cisplatin 5 mg/kg i.p. days 1, 4, 7, 10, 13) | % reduction compared to control (lung tumour metastases) ([1]; cisplatin 5 mg/kg i.p.) | Total tumour burden (per group) ([1]; cisplatin 5 mg/kg i.p.) | Volume (mm^3) of tumour ([2]; doxorubicin 1 mg/kg i.p. days 5, 9, 13) [mm^3] | % growth of tumour ([2]; doxorubicin 1 mg/kg i.p.) [%] | Diameter (mm) of tumour ([2]; doxorubicin 1 mg/kg i.p.) [mm]
1 | N.N.[Cl][Pt][Cl] [Cisplatin] | 24.70 | 27% and 26.7% | 346 | sharp decrease | 1.46 | 96% and 95.6% | 21 |  |  | 
2 | COc1cccc2c1C(=O)c1c(O)c3c(c(O)c1C2=O)C[C@@](O)(C(=O)CO)C[C@@H]3O[C@H]1C[C@H](N)[C@H](O)[C@H](C)O1 [Doxorubicin] |  |  |  |  |  |  |  | 2682 ± 220 | 247 ± 30 | 21.4 ± 1.1
